Assays:
[1] = target: Serine/threonine-protein kinase Nek4 (Homo sapiens) (UniProt P51957); assay: Selectivity interaction (KinomeScan (DiscoverX)) EUB0000655a NEK4; conditions: at 10 µM
[2] = target: T1, Muscarinic acetylcholine receptor M2 (Homo sapiens) (UniProt P08172); assay: Selectivity interaction (Panel of kinases, GPCRs, ion channels and transporters (enzymatic assay)) EUB0000266bCl CHRM2
T1 sequence (whole entry): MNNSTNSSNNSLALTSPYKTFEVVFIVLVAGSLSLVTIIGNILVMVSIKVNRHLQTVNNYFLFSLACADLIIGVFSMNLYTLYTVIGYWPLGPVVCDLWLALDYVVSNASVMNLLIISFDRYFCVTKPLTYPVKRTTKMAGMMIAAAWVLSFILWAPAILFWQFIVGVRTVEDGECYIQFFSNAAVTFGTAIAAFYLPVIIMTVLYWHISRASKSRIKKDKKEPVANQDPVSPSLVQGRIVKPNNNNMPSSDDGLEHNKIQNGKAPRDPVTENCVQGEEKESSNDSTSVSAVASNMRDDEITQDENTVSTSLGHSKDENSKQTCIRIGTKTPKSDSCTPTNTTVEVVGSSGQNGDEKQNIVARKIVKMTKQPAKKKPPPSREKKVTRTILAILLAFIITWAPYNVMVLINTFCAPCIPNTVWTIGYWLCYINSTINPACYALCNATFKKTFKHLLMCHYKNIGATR

[3] = target: T2, Alpha-2A adrenergic receptor (Homo sapiens) (UniProt P08913); assay: Selectivity interaction (GPCR panel (PDSP screen)) EUB0001079a ADRA2A; conditions: at 10 µM
T2 sequence (whole entry): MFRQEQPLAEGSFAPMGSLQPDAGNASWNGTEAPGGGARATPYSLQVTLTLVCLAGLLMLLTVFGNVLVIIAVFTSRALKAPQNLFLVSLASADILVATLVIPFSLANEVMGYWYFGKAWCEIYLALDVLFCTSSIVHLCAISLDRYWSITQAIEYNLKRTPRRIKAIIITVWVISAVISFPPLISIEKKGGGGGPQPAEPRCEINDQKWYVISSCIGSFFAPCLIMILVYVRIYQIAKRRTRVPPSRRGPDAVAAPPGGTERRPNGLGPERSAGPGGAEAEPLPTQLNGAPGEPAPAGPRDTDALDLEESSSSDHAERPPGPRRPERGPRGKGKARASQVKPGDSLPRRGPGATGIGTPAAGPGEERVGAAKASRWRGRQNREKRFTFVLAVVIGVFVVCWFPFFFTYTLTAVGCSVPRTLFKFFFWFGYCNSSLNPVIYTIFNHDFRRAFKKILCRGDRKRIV

[4] = target: Bromodomain-containing protein 3 (Homo sapiens) (UniProt Q15059); assay: Selectivity interaction (Human bromodomain panel (DSF assay)) EUB0000233b BRD3
Sequence of Bromodomain-containing protein 3 (Homo sapiens) (Q15059 2-726 limits assumed): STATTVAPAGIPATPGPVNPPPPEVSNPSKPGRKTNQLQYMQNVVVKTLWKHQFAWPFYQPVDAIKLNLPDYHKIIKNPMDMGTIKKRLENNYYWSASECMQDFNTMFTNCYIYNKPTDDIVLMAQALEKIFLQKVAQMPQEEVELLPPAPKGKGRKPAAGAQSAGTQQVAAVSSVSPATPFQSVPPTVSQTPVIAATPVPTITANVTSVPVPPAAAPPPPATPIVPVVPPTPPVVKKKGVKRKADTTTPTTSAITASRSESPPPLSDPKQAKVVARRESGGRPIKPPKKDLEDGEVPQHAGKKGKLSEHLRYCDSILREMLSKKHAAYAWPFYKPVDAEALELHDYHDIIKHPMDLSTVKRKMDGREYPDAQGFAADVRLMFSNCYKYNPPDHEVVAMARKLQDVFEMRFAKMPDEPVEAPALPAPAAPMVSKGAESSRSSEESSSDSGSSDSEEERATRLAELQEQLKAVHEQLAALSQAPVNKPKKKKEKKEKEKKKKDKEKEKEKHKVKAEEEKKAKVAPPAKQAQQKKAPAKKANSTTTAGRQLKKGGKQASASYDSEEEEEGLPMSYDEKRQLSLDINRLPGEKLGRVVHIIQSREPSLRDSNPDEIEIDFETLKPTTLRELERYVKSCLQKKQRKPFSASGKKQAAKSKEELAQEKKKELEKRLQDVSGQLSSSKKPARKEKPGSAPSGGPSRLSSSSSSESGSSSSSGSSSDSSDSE

[5] = target: T3, Protein kinase C iota type (Homo sapiens) (UniProt P41743); assay: Selectivity interaction (ActivX KiNativ screen (kinase selectivity in THP-1 cell lysates)) EUB0000639a PRKCI; format: subcellular; conditions: lysate, at 0.04 µM
T3 sequence (whole entry): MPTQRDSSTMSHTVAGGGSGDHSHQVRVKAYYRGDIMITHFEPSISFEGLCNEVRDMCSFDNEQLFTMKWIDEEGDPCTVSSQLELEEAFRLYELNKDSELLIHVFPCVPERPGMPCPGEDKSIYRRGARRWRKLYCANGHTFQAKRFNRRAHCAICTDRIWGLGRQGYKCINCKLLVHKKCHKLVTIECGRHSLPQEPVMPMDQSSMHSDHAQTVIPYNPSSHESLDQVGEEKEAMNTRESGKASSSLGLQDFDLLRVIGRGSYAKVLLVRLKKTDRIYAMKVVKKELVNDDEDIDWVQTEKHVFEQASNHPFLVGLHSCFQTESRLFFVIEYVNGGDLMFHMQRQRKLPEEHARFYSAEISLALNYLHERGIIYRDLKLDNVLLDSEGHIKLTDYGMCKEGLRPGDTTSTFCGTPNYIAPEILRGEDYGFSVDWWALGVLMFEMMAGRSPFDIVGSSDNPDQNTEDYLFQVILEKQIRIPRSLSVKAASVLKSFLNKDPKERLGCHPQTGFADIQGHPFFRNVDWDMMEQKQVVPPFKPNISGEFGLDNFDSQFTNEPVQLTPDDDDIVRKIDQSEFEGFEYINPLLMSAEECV

[6] = target: Dual specificity protein kinase CLK2 (Homo sapiens, UniProt P49760); assay: Selectivity interaction (KinomeScan (DiscoverX)) EUB0001049a CLK2; conditions: at 1 µM
Sequence of Dual specificity protein kinase CLK2 (P49760 whole entry, looked up): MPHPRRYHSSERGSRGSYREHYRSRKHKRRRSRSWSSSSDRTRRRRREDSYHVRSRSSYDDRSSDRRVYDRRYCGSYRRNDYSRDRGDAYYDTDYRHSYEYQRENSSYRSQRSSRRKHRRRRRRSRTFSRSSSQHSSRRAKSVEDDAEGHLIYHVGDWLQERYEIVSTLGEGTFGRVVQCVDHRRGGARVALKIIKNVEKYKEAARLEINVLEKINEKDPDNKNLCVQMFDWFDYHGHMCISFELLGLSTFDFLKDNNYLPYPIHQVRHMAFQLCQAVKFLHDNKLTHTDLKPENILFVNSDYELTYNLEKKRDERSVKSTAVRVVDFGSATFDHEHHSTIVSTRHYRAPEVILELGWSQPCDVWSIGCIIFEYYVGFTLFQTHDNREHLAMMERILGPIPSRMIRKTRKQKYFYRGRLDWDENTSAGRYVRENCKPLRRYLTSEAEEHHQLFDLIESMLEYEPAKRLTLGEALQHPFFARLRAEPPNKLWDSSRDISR

[7] = target: T4, Mitogen-activated protein kinase kinase kinase 3 (Homo sapiens) (UniProt Q99759); assay: Selectivity interaction (Ambit KINOMEscan and KiNATiv profiling in Jurkat cells) EUB0000090b MAP3K3; format: cell-based; conditions: at 1 µM
T4 sequence (whole entry): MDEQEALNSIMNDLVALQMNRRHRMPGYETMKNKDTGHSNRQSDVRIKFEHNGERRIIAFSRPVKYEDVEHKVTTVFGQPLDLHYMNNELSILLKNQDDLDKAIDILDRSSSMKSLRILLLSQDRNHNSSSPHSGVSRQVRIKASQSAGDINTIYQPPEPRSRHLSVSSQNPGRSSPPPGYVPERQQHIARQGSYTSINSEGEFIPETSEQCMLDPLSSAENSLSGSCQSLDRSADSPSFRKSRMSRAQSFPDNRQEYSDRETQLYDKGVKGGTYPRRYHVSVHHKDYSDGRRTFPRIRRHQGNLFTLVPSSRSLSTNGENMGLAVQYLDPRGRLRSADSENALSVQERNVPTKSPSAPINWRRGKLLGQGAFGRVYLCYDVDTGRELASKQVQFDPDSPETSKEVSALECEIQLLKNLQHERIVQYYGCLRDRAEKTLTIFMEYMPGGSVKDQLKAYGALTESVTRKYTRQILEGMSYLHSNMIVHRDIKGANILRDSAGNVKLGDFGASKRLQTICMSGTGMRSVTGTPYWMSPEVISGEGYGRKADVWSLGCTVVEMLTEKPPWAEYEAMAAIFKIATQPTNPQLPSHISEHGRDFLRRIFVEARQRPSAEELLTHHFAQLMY

Sequence of Serine/threonine-protein kinase Nek4 (Homo sapiens) (P51957 whole entry, looked up): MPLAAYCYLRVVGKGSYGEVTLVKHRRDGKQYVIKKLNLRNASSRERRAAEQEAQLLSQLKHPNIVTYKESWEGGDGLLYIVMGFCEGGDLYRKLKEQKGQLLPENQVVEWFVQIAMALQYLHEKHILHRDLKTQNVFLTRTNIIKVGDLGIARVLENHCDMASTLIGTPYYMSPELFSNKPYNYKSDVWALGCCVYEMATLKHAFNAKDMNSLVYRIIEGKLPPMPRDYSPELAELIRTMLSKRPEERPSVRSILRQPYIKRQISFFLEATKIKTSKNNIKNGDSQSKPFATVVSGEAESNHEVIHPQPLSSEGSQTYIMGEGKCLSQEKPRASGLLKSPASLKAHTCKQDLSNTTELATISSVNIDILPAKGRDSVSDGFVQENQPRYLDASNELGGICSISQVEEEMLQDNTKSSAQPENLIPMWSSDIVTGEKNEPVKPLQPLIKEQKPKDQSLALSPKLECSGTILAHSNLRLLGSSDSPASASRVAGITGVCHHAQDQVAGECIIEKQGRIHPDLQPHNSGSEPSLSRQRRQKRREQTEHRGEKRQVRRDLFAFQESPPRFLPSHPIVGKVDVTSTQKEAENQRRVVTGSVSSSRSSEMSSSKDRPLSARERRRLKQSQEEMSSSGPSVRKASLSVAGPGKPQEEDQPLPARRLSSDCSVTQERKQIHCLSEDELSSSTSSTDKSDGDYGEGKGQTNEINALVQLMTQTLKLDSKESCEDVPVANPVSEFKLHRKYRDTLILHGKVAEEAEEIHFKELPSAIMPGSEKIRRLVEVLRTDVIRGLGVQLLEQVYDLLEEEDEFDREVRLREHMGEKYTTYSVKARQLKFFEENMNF

For `CN(C)CCOc1ccc(-c2nc(-c3ccncc3)c(-c3ccc4c(c3)CC/C4=N\O)[nH]2)cc1`, the % of control [1] was 100%.
`CCn1c(-c2nc3cc(C(=O)N4CCCC(N)C4)ccc3n2C)cc2ccccc21` (configuration not stated) gave a pXC50 [2] of less than 4.8 M.
With `Nc1cnc(N2CCc3cc(S(=O)(=O)Nc4c(F)cc(Cl)cc4F)cc(N4CCCC4=O)c32)nc1` [TP-020n] the % of inhibition [3] was -10.1%.
Work on `CN(C)CCCOc1ccc(-c2cc(NCCCn3cccn3)nc(S(C)(=O)=O)n2)cc1` yielded a dTM [4] of less than 2 K.
Compound `CC[C@@H]1[C@H](F)C(=O)N[C@@H]1COc1nccc2cc(C(N)=O)c(OC)cc12` [ZIMLOVISERTIB] has a % of inhibition [5] of -0.9%.
Work on `COc1cc(Nc2nc(C)cc(-c3cnn4nc(OC)ccc34)n2)cc(C(F)(F)F)c1` yielded a % of control [6] of 96%.
Compound `CN(C)C/C=C/C(=O)Nc1ccc(C(=O)N2CCCC(Nc3ncc(Cl)c(-c4c[nH]c5ccccc45)n3)C2)cc1` (configuration not stated) has a % of control [7] of 90%.

— ChEMBL document CHEMBL5465560, “Selectivity Literature for EUbOPEN Chemogenomic Library” (2024)
